Where two headings read alike, the source gives them in different places.

The subject of test [1] is phosphorylated AKT Ser473 (pAKT S473), mTORC2 activity, PC3 cells. As to the kind of experiment: mTOR target engagement assay, immunofluorescent cell-based, pAKT S473 readout (mTORC2 activity). The settings on record: Homo sapiens. In outline: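 After blocking, cells were stained overnight at 4 °C with anti-pAKT S473 antibody, then a fluorescent secondary; inhibition was read as reduced fluorescence intensity.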

The test system of test [2] is phosphorylated 4E-BP1 Thr37/46 (p4E-BP1 Thr37/46), mTORC1 activity, PC3 cells. As to the kind of experiment: mTOR target engagement assay, immunofluorescent cell-based, p4E-BP1 Thr37/46 readout (mTORC1 activity). The settings on record: Homo sapiens, read-out: p4E-BP1 Thr37/46 IC50. In outline: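 Read-out is fluorescence intensity of immunostained p4E-BP1 Thr37/46 in fixed PC3 cells, fitted to a logistic curve for IC50 with DMSO-only wells as top. Cells had been exposed to serial compound dilutions for ninety minutes at 37° C in 5% FBS medium with 0.25% DMSO.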

[3] abbreviates: PC-3, PC3 cells, compound treatment ninety minutes at 37° C.

As for `CS(=O)(=O)c1c([C@@H]2C[C@H]3CC[C@@H](C2)N3C(=O)C(F)(F)F)nc2c(-c3ccc(-c4ccccc4)nc3)cnn2c1N` [Compound 3.91, 1-((1R,3s,5S)-3-(7-amino-6-(methylsulfonyl)-3-(6-phenylpyridin-3-yl)pyrazolo[1,5-a]pyrimidin-5-yl)-8-azabicyclo[3.2.1]octan-8-yl)-2,2,2-trifluoroethanone], the IC50 in test [1] (PC-3, Table 3-1, PC3 cells) lay in the range of 1000 to 10000 nM; in test [2] (PC-3, Table 3-1, PC3 cells) it was 1000 to 10000 nM.
As for `COCCOCC(=O)N1[C@@H]2CC[C@H]1C[C@H](c1nc3c(-c4ccc(-c5ccccc5)nc4)cnn3c(N)c1S(C)(=O)=O)C2` [Compound 3.72, 1-((1R,3s,5S)-3-(7-amino-6-(methylsulfonyl)-3-(6-phenylpyridin-3-yl)pyrazolo[1,5-a]pyrimidin-5-yl)-8-azabicyclo[3.2.1]octan-8-yl)-2-(2-methoxyethoxy)ethanone], the IC50 was in the range of 1000 to 10000 nM in test [1] (PC-3, Table 3-1, PC3 cells) and 1000 to 10000 nM in test [2] (PC-3, Table 3-1, PC3 cells).
For the compound `CC(=O)c1c([C@@H]2C[C@H]3CC[C@@H](C2)N3C(=O)c2nnc[nH]2)nc2c(-c3ccc(-c4ccccn4)nc3)cnn2c1N` [Compound 1.1.146, 1-(3-(2,2′-bipyridin-5-yl)-5-((1R,3s,5S)-8-(4H-1,2,4-triazole-3-carbonyl)-8-azabicyclo[3.2.1]octan-3-yl)-7-aminopyrazolo[1,5-a]pyrimidin-6-yl)ethanone], the IC50 in test [1] (setting [3]) and in test [2] (setting [3]) was 1 to 100 nM each time.
With `CC(=O)c1c([C@@H]2C[C@H]3CC[C@@H](C2)N3C(=O)c2nnc[nH]2)nc2c(-c3ccc([C@H](C)O)cc3)cnn2c1N` [Compound 7.22, 1-(5-((1R,3s,5S)-8-(4H-1,2,4-triazole-3-carbonyl)-8-azabicyclo[3.2.1]octan-3-yl)-7-amino-3-(4-((S)-1-hydroxyethyl)phenyl)pyrazolo[1,5-a]pyrimidin-6-yl)ethanone], the IC50 in test [1] (setting [3]) and in test [2] (setting [3]) was 1 to 100 nM each time.
`CS(=O)(=O)c1c(C2CC3COCC(C2)N3C(=O)C2(O)CC2)nc2c(-c3ccc(-c4ccccc4)nc3)cnn2c1N` (single isomer, unassigned) [Compound 8.32, (7-(7-amino-6-(methylsulfonyl)-3-(6-phenylpyridin-3-yl)pyrazolo[1,5-a]pyrimidin-5-yl)-3-oxa-9-azabicyclo[3.3.1]nonan-9-yl)(1-hydroxycyclopropyl)methanone]: the IC50 in test [1] (PC-3, PC3 cells) was 1 to 100 nM; in test [2] (PC-3, PC3 cells), 100 to 1000 nM.
For `CS(=O)(=O)c1c([C@@H]2C[C@H]3CC[C@@H](C2)N3C(=O)c2nnc[nH]2)nc2c(-c3ccc(C4(N)CC4)c(F)c3)cnn2c1N` [Compound 8.44, ((1R,3s,5S)-3-(7-amino-3-(4-(1-aminocyclopropyl)-3-fluorophenyl)-6-(methylsulfonyl)pyrazolo[1,5-a]pyrimidin-5-yl)-8-azabicyclo[3.2.1]octan-8-yl)(4H-1,2,4-triazol-3-yl)methanone], the IC50 fell in the range of 1000 to 10000 nM in test [1] (PC-3, PC3 cells) and 1000 to 10000 nM in test [2] (PC-3, PC3 cells).
Regarding `Cc1nc(C(=O)N2[C@@H]3CC[C@H]2C[C@H](c2nc4c(-c5ccc(-c6csc(C)n6)nc5)cnn4c(N)c2S(C)(=O)=O)C3)n[nH]1` [Compound 3.199, ((1R,3s,5S)-3-(7-amino-6-(methylsulfonyl)-3-(6-(2-methylthiazol-4-yl)pyridin-3-yl)pyrazolo[1,5-a]pyrimidin-5-yl)-8-azabicyclo[3.2.1]octan-8-yl)(5-methyl-1H-1,2,4-triazol-3-yl)methanone], the IC50 in test [1] (PC-3, Table 3-1, PC3 cells) was in the range of 1 to 100 nM; in test [2] (PC-3, Table 3-1, PC3 cells) it was 100 to 1000 nM.
For the compound `CS(=O)(=O)c1c([C@@H]2C[C@H]3CC[C@@H](C2)N3c2ncncc2N)nc2c(-c3ccc(-c4ccccc4)nc3)cnn2c1N` [Compound 8.64, 5-((1R,3s,5S)-8-(5-aminopyrimidin-4-yl)-8-azabicyclo[3.2.1]octan-3-yl)-6-(methylsulfonyl)-3-(6-phenylpyridin-3-yl)pyrazolo[1,5-a]pyrimidin-7-amine], the IC50 in test [1] (PC-3, PC3 cells) is 100 to 1000 nM; in test [2] (PC-3, PC3 cells), 1000 to 10000 nM.
Take `CC(C)(O)c1ccc(-c2cnn3c(N)c(C4CC4)c([C@@H]4C[C@H]5CC[C@@H](C4)N5C(=O)c4nnc[nH]4)nc23)cn1` [Compound 7.39, ((1R,3s,5S)-3-(7-amino-6-cyclopropyl-3-(6-(2-hydroxypropan-2-yl)pyridin-3-yl)pyrazolo[1,5-a]pyrimidin-5-yl)-8-azabicyclo[3.2.1]octan-8-yl)(4H-1,2,4-triazol-3-yl)methanone]: the IC50 in test [1] (PC-3, Table 7-8, PC3 cells) lay within 1 to 100 nM; in test [2] (PC-3, Table 7-8, PC3 cells) it was 1 to 100 nM.
Take `CS(=O)(=O)c1c([C@@H]2C[C@H]3CC[C@@H](C2)N3C(N)=O)nc2c(-c3ccc(-c4ccccc4)nc3)cnn2c1N` [Compound 3.10, (1R,3s,5S)-3-(7-amino-6-(methylsulfonyl)-3-(6-phenylpyridin-3-yl)pyrazolo[1,5-a]pyrimidin-5-yl)-8-azabicyclo[3.2.1]octane-8-carboxamide]: the IC50 in test [1] (PC-3, Table 3-1, PC3 cells) was in the range of 1 to 100 nM; in test [2] (PC-3, Table 3-1, PC3 cells), 1 to 100 nM.
Consider `CC(=O)c1c([C@@H]2C[C@H]3CC[C@@H](C2)N3S(=O)(=O)c2nnc[nH]2)nc2c(-c3ccc(-c4ccccc4)nc3)cnn2c1N` [Compound 1.1.42, 1-(5-((1R,3s,5S)-8-(4H-1,2,4-triazol-3-ylsulfonyl)-8-azabicyclo[3.2.1]octan-3-yl)-7-amino-3-(6-phenylpyridin-3-yl)pyrazolo[1,5-a]pyrimidin-6-yl)ethanone], for which the IC50 in test [1] (setting [3]) and in test [2] (setting [3]) was 100 to 1000 nM each time.
`CS(=O)(=O)c1c([C@@H]2C[C@H]3CC[C@@H](C2)N3C(=O)c2nnc[nH]2)nc2c(-c3ccc(CO)nc3)cnn2c1N` [Compound 7.35, ((1R,3s,5S)-3-(7-amino-3-(6-(hydroxymethyl)pyridin-3-yl)-6-(methylsulfonyl)pyra-zolo[1,5-a]pyrimidin-5-yl)-8-azabicyclo[3.2.1]octan-8-yl)(4H-1,2,4-triazol-3-yl)methanone]: the IC50 is 100 to 1000 nM in test [1] (PC-3, Table 7-5, PC3 cells) and 100 to 1000 nM in test [2] (PC-3, Table 7-5, PC3 cells).
With `CS(=O)(=O)c1c([C@@H]2C[C@H]3CC[C@@H](C2)N3C(=O)c2cnn[nH]2)nc2c(-c3ccc(-c4ccccc4)nc3)cnn2c1N` [Compound 3.3, ((1R,3s,5S)-3-(7-amino-6-(methylsulfonyl)-3-(6-phenylpyridin-3-yl)pyrazolo[1,5-a]pyrimidin-5-yl)-8-azabicyclo[3.2.1]octan-8-yl)(1H-1,2,3,-triazol-5-yl)methanone], the IC50 fell in the range of 1 to 100 nM in test [1] (PC-3, Table 3-1, PC3 cells) and 100 to 1000 nM in test [2] (PC-3, Table 3-1, PC3 cells).
In the case of `CC(=O)c1c([C@@H]2C[C@H]3CC[C@@H](C2)N3C#N)nc2c(-c3ccc(-c4ccccc4)nc3)cnn2c1N` [Compound 8.71, (1R,3s,5S)-3-(6-acetyl-7-amino-3-(6-phenylpyridin-3-yl)pyrazolo[1,5-a]pyrimidin-5-yl)-8-azabicyclo[3.2.1]octane-8-carbonitrile], the IC50 in test [1] (PC-3, PC3 cells) fell in the range of 100 to 1000 nM; in test [2] (PC-3, PC3 cells) it was 100 to 1000 nM.
As for `CS(=O)(=O)c1c([C@@H]2C[C@H]3CC[C@@H](C2)N3c2nccc(N)n2)nc2c(-c3ccc(-c4ccccc4)nc3)cnn2c1N` [Compound 8.63, 5-((1R,3s,5S)-8-(4-aminopyrimidin-2-yl)-8-azabicyclo[3.2.1]octan-3-yl)-6-(methylsulfonyl)-3-(6-phenylpyridin-3-yl)pyrazolo[1,5-a]pyrimidin-7-amine], the IC50 in test [1] (PC-3, PC3 cells) lay in the range of 1000 to 10000 nM; in test [2] (PC-3, PC3 cells) it was 1000 to 10000 nM.
As to `Nc1cc([C@@H]2C[C@H]3CC[C@@H](C2)N3C(=O)[C@@H]2CCCN2)nc2c(-c3ccc(-c4ccccc4)nc3)cnn12` [Compound 2.20], the IC50 in test [1] (setting [3]) and in test [2] (setting [3]) was 1000 to 10000 nM each time.
With `CC(=O)c1c([C@@H]2C[C@H]3CC[C@@H](C2)N3C(=O)c2nnc[nH]2)nc2c(-c3ccc(-c4ccc5nc[nH]c5c4)nc3)cnn2c1N` [Compound 1.1.71, 1-(3-(6-(1H-benzo[d]imidazol-6-yl)pyridin-3-yl)-5-((1R,3s,5S)-8-(4H-1,2,4-triazole-3-carbonyl)-8-azabicyclo[3.2.1]octan-3-yl)-7-aminopyrazolo[1,5-a]pyrimidin-6-yl)ethanone], the IC50 in test [1] (setting [3]) and in test [2] (setting [3]) was 100 to 1000 nM each time.
For the compound `CC(=O)c1c([C@@H]2C[C@H]3CC[C@@H](C2)N3C(=O)c2nnc[nH]2)nc2c(-c3ccc(C(O)CC(C)C)nc3)cnn2c1N` (stereo partly drawn) [Compound 7.6, 1-(5-((1R,3s,5S)-8-(4H-1,2,4-triazole-3-carbonyl)-8-azabicyclo[3.2.1]octan-3-yl)-7-amino-3-(6-(1-hydroxy-3-methylbutyl)pyridin-3-yl)pyrazolo[1,5-a]pyrimidin-6-yl)ethanone], the IC50 in test [1] (setting [3]) lay in the range of 1000 to 10000 nM; in test [2] (setting [3]) it was 100 to 1000 nM.
Consider `CC(=O)Nc1nnc(C(=O)N2[C@@H]3CC[C@H]2C[C@H](c2nc4c(-c5ccc(-c6ccccc6)nc5)cnn4c(N)c2S(C)(=O)=O)C3)[nH]1` [Compound 3.89], for which the IC50 lay in the range of 100 to 1000 nM in test [1] (PC-3, Table 3-1, PC3 cells) and 100 to 1000 nM in test [2] (PC-3, Table 3-1, PC3 cells).
Regarding `CS(=O)(=O)c1c([C@@H]2C[C@H]3CC[C@@H](C2)N3C(=O)c2nnc[nH]2)nc2c(-c3ccc(-c4cccc(F)c4F)nc3)cnn2c1N` [Compound 3.47, ((1R,3s,5S)-3-(7-amino-3-(6-(2,3-difluorophenyl)pyridin-3-yl)-6-(methylsulfonyl)pyazolo[1,5-a]pyrimidin-5-yl)-8-azabicyclo[3.2.1]octan-8-yl)(4H-1,2,4-triazol-3-yl)methanone], the IC50 lay in the range of 1 to 100 nM in test [1] (PC-3, Table 3-1, PC3 cells) and 1 to 100 nM in test [2] (PC-3, Table 3-1, PC3 cells).

(Values after US9227971B2, “Pyrazolo[1,5-a]pyrimidine compounds as mTOR inhibitors” (Merck Sharp & Dohme Corp., priority 2010, dated 2016).)
